The results in this text go back to PubChem BioAssay AID1259407 (Chemical Carcinogenesis Research Information System (CCRIS), 2018).

The data set deals with CCRIS mutagenicity, Ames/micronucleus/aberration tests. The data set is described as follows: CCRIS mutagenicity studies.
The mark [1] stands for this setting: Test System: AMES SALMONELLA TYPHIMURIUM, Strain/Indicator: TA100, Metabolic Activation: NONE, Method: STANDARD PLATE.

Structures are written as SMILES. Calls of active or inactive are those of the source. The rule behind the calls is not given here.

`Cc1ccc2cc3c(ccc4ccccc43)cc2c1`: the mutagenic call runs as follows: (Test System: AMES SALMONELLA TYPHIMURIUM, Strain/Indicator: TA100, Metabolic Activation: RAT, INTACT HEPATOCYTES, AROCLOR 1254, Method: PREINCUBATION) “active; positive”; (Test System: AMES SALMONELLA TYPHIMURIUM, Strain/Indicator: TA100, Metabolic Activation: RAT, NADPH-FORTIFIED HOMOGENIZED HEPATOCYTES, AROCLOR 1254, Method: PREINCUBATION) “active; positive”; (Test System: AMES SALMONELLA TYPHIMURIUM, Strain/Indicator: TA100, Metabolic Activation: RAT, SONICATED HEPATOCYTES, AROCLOR 1254, Method: PREINCUBATION) “active; positive”.
In the case of `CCN(CC)CCNC(=O)c1cc(Cl)c(N)cc1OC`, the mutagenic call reads like this: (Test System: CHINESE HAMSTER V-79, Strain/Indicator: V-79 (HGPRT)/6-THIOGUANINE, Metabolic Activation: NONE) “active; positive”; (Test System: UDS HUMAN HEPATOCYTES, Strain/Indicator: THY INCORP, Metabolic Activation: NONE, Method: AUTORADIOGRAPHY) “inactive; negative”; (Test System: UDS RAT HEPATOCYTES, Strain/Indicator: THY INCORP, Metabolic Activation: NONE, Method: AUTORADIOGRAPHY) “inactive; negative”.
For the compound `CC(=O)OC[C@]12CCC(C)=C[C@H]1O[C@@H]1[C@H](O)[C@@H](OC(C)=O)[C@@]2(C)[C@]12CO2`, the mutagenic call by setting is: (Test System: AMES SALMONELLA TYPHIMURIUM, Strain/Indicator: TA98, Metabolic Activation: RAT, LIVER, MICROSOMES, PHENOBARBITAL, Method: STANDARD PLATE) “inactive; negative”; under setting [1], “inactive; negative”; (Test System: AMES SALMONELLA TYPHIMURIUM, Strain/Indicator: TA100, Metabolic Activation: RAT, LIVER, MICROSOMES, PHENOBARBITAL, Method: STANDARD PLATE) “inactive; negative”.
Regarding `CCOC(=O)C(C)NC(=O)C=[N+]=[N-]` (stereo not given), the mutagenic call (Test System: UDS RODENT CELLS, Strain/Indicator: THY INCORP (NON-S-PHASE), Metabolic Activation: NONE, Method: AUTORADIOGRAPHY) is “active; positive”.
For `c1ccc2c(c1)-c1cc3ccccc3c3cc4ccccc4c-2c13`, the mutagenic call (Test System: AMES SALMONELLA TYPHIMURIUM, Strain/Indicator: TA100, Metabolic Activation: MOUSE, LIVER, S-9, 3-METHYLCHOLANTHRENE, Method: STANDARD PLATE) was “active; positive”; the mutagenic call (Test System: AMES SALMONELLA TYPHIMURIUM, Strain/Indicator: TA100, Metabolic Activation: RAT, LIVER, S-9, 3-METHYLCHOLANTHRENE, Method: STANDARD PLATE) was “active; positive”; the mutagenic call (Test System: HUMAN H1A1V2 CELLS, Strain/Indicator: TK LOCUS, Metabolic Activation: NONE, Method: SUSPENSION/PLATE) is “active; positive”.
Regarding `Cc1cc2ccccc2c2ccc3c(c12)[C@H]1O[C@H]1[C@@H](O)[C@H]3O`, for the setting “Test System: AMES SALMONELLA TYPHIMURIUM, Strain/Indicator: TA100, Metabolic Activation: NONE, Method: PREINCUBATION”, the mutagenic call is “active; positive”.
As for `CCCCOCN(C(=O)CCl)c1c(CC)cccc1CC`, the mutagenic call is “inactive; negative” under setting [1]; “active; positive” (Test System: AMES SALMONELLA TYPHIMURIUM, Strain/Indicator: TA100, Metabolic Activation: S-9 MIX, Method: STANDARD PLATE); “inactive; negative” (Test System: Ames Salmonella typhimurium, Strain/Indicator: TA97, Metabolic Activation: None, Method: Suspension); “inactive; negative” (Test System: Ames Salmonella typhimurium, Strain/Indicator: TA97, Metabolic Activation: Rat, Liver, S-9, Aroclor 1254 (10% v/v), Method: Preincubation); “inactive; negative” (Test System: Ames Salmonella typhimurium, Strain/Indicator: TA98, Metabolic Activation: None, Method: Preincubation); “inactive; negative” (Test System: Ames Salmonella typhimurium, Strain/Indicator: TA98, Metabolic Activation: Rat, Liver, S-9, Aroclor 1254 (10% v/v), Method: Suspension). The mutagenic call is “inactive; negative” (Test System: Ames Salmonella typhimurium, Strain/Indicator: TA100, Metabolic Activation: None, Method: Suspension) and “inactive; negative” (Test System: Ames Salmonella typhimurium, Strain/Indicator: TA100, Metabolic Activation: Rat, Liver, S-9, Aroclor 1254 (10% v/v), Method: Suspension).
With `C[C@]12CC[C@@H](OC(=O)/C=C/c3cccc(N(CCCl)CCCl)c3)C[C@@H]1CC[C@@H]1[C@@H]2CC[C@]2(C)NC(=O)CC[C@@H]12`, the mutagenic call (Test System: AMES SALMONELLA TYPHIMURIUM, Strain/Indicator: TA98, Metabolic Activation: NONE, Method: STANDARD PLATE) is “inactive; negative”; the mutagenic call (Test System: AMES SALMONELLA TYPHIMURIUM, Strain/Indicator: TA98, Metabolic Activation: RAT, LIVER, S-9, AROCLOR 1254, Method: STANDARD PLATE) was “inactive; negative”; the mutagenic call under setting [1] was “inactive; negative”; the mutagenic call (Test System: AMES SALMONELLA TYPHIMURIUM, Strain/Indicator: TA100, Metabolic Activation: RAT, LIVER, S-9, AROCLOR 1254, Method: STANDARD PLATE) is “inactive; negative”; the mutagenic call (Test System: AMES SALMONELLA TYPHIMURIUM, Strain/Indicator: TA1535, Metabolic Activation: NONE, Method: STANDARD PLATE) is “active; positive”; the mutagenic call (Test System: AMES SALMONELLA TYPHIMURIUM, Strain/Indicator: TA1535, Metabolic Activation: RAT, LIVER, S-9, AROCLOR 1254, Method: STANDARD PLATE) was “active; positive”. Further, the mutagenic call (Test System: AMES SALMONELLA TYPHIMURIUM, Strain/Indicator: TA1537, Metabolic Activation: NONE, Method: STANDARD PLATE) was “inactive; negative” and the mutagenic call (Test System: AMES SALMONELLA TYPHIMURIUM, Strain/Indicator: TA1537, Metabolic Activation: RAT, LIVER, S-9, AROCLOR 1254, Method: STANDARD PLATE) is “inactive; negative”.
